Test results reported in patent EP2960339A1, “Method and kit for the identification of glycosyl transferase substrates” (Technische Universität München, priority 2014, dated 2015).
Values joined by “and” are separate entries in the source; they are usually repeats but may differ in a detail not shown here. Equal values may be shown once. Read-outs that look alike come from different tables or passages of the source. One block for each compound: values may come before it.

Experiments:
Type in all cases: biochemical
[1] = target: T1, VvGT16 (Vitis vinifera, UniProt F6HTJ4); test: Substrate screening, radiochemical activity assay with UDP-[14C]glucose; conditions: for efficiency of transformation of R- and S-citronellol (in words): radiochemical assays, Figure 12; for conversion of putative substrate (in words): substrate screening, Figure 3; for relative specific activity: relative to conversion of benzyl alcohol (100 %), extractable radioactivity
T1 sequence (F6HTJ4 entry or part of it): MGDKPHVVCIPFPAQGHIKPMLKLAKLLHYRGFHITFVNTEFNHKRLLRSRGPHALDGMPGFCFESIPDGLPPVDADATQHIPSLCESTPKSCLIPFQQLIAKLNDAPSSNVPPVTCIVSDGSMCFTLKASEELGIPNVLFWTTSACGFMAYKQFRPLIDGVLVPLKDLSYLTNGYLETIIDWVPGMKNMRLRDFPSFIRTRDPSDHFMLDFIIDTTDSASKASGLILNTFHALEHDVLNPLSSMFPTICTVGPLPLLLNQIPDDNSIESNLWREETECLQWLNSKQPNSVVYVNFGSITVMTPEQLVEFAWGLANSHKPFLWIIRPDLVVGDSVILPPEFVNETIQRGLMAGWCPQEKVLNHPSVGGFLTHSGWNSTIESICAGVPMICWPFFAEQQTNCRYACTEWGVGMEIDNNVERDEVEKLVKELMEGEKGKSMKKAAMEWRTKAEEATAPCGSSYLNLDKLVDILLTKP
Procedure: (§1) In the initial screening, each reaction mixture (200 µL in total) contained Tris-HCl buffer (100 mM, pH 8, 10 mM 2-mercaptoethanol), 37 pmol UDP-[^14C]glucose (0.01 µCi, Biotrend, Köln, Germany), substrate (50 µL of a 1 mg/mL stock solution) and purified protein (0.5-0.8 µg/µL). The reaction mixture was incubated at 30 °C for 18.5 hours. The assays were stopped by adding 1 µL 24% trichloroacetic acid and extracted with 500 µL water-saturated 1-butanol. The organic phase was mixed with 2 mL Pro Flow P+ cocktail (Meridian Biotechnologies Ltd., Epsom, UK) and radioactivity was determined by liquid scintillation counting (LSC, Tri-Carb 2800TR, Perkin Elmer, Waltham MA, USA). Additionally, negative controls without substrate were performed.
(§2) After determining the optimal conditions for the best substrate of each gene, the substrate screening was repeated under these conditions.
(§3) The alleles of VvGT14a-c, 15a-c and 16 were isolated from V. vinifera cultivars and cloned in the expression vector pGEX-4T-1. The recombinant proteins were expressed with an N-terminal GST-tag, affinity purified and verified by SDS-PAGE and Western Blot using GST-specific antibody. Enzyme activity studies were performed with UDP-[^14C]glucose and various putative substrates (terpenols, flavonoids and different mono-alcohols) that are known to be glycosidically bound and present in grapes (Gunata et al., 1988).

[2] = target: T2, VvGT14a (Vitis vinifera, UniProt F6H0R6); test: as above; conditions: for conversion of putative substrate (in words): substrate screening, Figure 3; for relative specific activity: relative to conversion of geraniol (100 %), extractable radioactivity
T2 sequence (F6H0R6 entry or part of it): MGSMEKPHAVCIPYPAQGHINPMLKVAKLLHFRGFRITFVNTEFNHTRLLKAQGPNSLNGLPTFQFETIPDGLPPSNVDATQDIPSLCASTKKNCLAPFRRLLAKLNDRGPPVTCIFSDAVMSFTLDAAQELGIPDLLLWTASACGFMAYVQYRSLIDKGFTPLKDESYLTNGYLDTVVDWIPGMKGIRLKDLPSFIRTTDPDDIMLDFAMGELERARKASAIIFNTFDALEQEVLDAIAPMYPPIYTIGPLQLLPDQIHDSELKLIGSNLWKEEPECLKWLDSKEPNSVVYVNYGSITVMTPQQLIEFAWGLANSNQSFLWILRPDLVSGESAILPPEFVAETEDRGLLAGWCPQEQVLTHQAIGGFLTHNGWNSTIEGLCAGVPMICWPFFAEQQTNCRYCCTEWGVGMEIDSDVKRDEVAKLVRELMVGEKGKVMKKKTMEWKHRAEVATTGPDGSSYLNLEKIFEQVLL
Procedure: as §1, §2, §3

[3] = target: T3, VvGT15a (Vitis vinifera, UniProt F6GUW0); test: as above; conditions: for conversion of putative substrate (in words): substrate screening, Figure 3
T3 sequence (F6GUW0 entry or part of it): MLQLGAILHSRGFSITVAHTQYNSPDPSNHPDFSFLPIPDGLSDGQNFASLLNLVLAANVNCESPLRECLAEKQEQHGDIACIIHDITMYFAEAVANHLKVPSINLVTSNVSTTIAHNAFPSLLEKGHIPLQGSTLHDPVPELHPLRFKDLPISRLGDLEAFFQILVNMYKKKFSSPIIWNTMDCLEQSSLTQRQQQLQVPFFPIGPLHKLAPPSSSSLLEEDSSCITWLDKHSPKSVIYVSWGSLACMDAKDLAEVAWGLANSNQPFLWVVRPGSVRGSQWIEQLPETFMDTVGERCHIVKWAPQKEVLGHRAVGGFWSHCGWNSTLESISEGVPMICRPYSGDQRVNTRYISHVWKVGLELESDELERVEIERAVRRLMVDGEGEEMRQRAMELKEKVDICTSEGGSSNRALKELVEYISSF
Procedure: as §1, §2, §3

[4] = target: T4, VvGT15c (Vitis vinifera, UniProt F6GUW0); test: as above; conditions: for conversion of putative substrate (in words): substrate screening, Figure 3
T4 sequence (F6GUW0 entry or part of it): as above
Procedure: as §1, §2, §3

[5] = target: T2, VvGT14a; conditions: for Km: monoterpenols at constant UDP-glucose […], UDP-glucose at fixed geraniol 100 µM, Tris-HCl pH 8.5, 30 °C; for kcat: pH 8.5
[6] = target: T3, VvGT15a
Procedure: (§4) The measurements were performed under the following conditions. […] The assay of VvGT15a-c was performed at 30 °C using a Tris-HCl buffer (100 mM, 10 mM 2-mercaptoethanol, pH 7.5) and 10 min (VvGT15c) or 30 min (VvGT15a-b) of incubation for the best substrates. The amount of the purified enzyme and the incubation time were adapted depending on the counting sensibility. The reaction was stopped by adding 1 µL 24% trichloroacetic acid and glucosides were extracted with 100 µL ethyl acetate. Radioactivity was determined by LSC.
(§5) The KM- and vmax-values were calculated from Lineweaver-Burk plots, Hanes-Woolf plots and non-linear fitting of the experimental data.

[7] = target: T5, VvGT15b (Vitis vinifera, UniProt F6GUW0)
T5 sequence (F6GUW0 entry or part of it): as above
Procedure: as §4, §5

[8] = target: T4, VvGT15c
Procedure: as §4, §5

[9] = target: T1, VvGT16; test: Kinetics (KM, kcat) with UDP-[14C]glucose, liquid scintillation counting; conditions: monoterpenes at constant UDP-glucose 512.5 µM; UDP-glucose at fixed geraniol 1.25 mM; Tris-HCl pH 8.5, 30 °C
[10] = target: T5, VvGT15b; test: Substrate screening, radiochemical activity assay with UDP-[14C]glucose; conditions: for conversion of putative substrate (in words): substrate screening, Figure 3
Procedure: as §1, §2, §3

[11] = target: T2, VvGT14a; test: Activity based profiling using a physiologic aglycone library (radio-TLC, GC-MS); conditions: Figure 7
Procedure: For the preparation of aglycone extracts 50 g (fresh weight) grape skins or 4 g (fresh weight) inflorescences of Gewurztraminer Gm 11-18 were ground to a fine powder in liquid nitrogen. The isolation of glycosides was carried out as described above (see metabolite analysis). The methanolic fraction, which was obtained after SPE, was enzymatically hydrolysed. Therefore, the dried sample was dissolved in citric-acid buffer (0.1 M, pH 4), 50 mg AR 2000 (an enzyme preparation with glucosidase activity prepared from Aspergillus niger; DSM Food Specialties Beverage Ingredients, Delft, Netherlands) was added and incubated for 24 h with exclusion of light. The liberated aglycones were extracted by 20 mL methyl-tert-butyl ether and the organic phase was reduced to 1000µL using a gentle stream of nitrogen.
Aliquots of this aglycone extract were incubated with UDP-glucose and various VvGT-enzymes. Optimum conditions at 30 °C for 24 hours were applied. Each solution contained 100 µL purified enzyme, 100-150 µL Tris-HCl buffer (100 mM, pH7.5 or 8.5, 10 mM 2-mercaptoethanol), 37 pmol UDP-[^14C]glucose (0.01 µCi) and 50-100 µL extract (dissolved in methyl-tert-butylether). The buffer was mixed with the extract and the organic solvent was gently vaporized with nitrogen. The missing volume was adjusted with buffer before the enzyme was added. The reaction was stopped by adding 1 µL 24% trichloroacetic acid and extracted with 500 µL ethyl acetate. After termination of the reaction free aglycones, which were not converted by VvGT14 and VvGT15, were measured via SPME-(Solid Phase Microextraction)-GC-MS. These residual, free aglycones were completely removed by extraction with dichloromethane. Enzymatically formed glucosides were extracted by ethyl acetate, which was removed under nitrogen. The residue was dissolved in methanol and analyzed by LC-MS to detect the generated monoterpenol glucosides. Enzymatic hydrolysis of the glucosides was performed using AR 2000 and 2 mL citric-acid-buffer. After hydrolysis, a 100 µL aliquot was used to detect volatile aglycones via SPME-GC-MS. The remaining solution was extracted with methyl-tert-butyl ether and reduced under nitrogen to approximately 200 µL. One µL were measured by GC-MS via liquid injection.
Assays containing UDP-[^14C]glucose and aglycone libraries or substrates were performed as described above and subsequently extracted with 500 µL ethyl acetate. The organic solvent was vaporized and the pellet was re-suspended in 10 µL methanol and was applied on Silica Gel 60 F254 plates (Merck, Darmstadt, Germany). The dried plates were developed in a solvent system chloroform:acetic acid:water (50/45/5, v:v:v). Plates were dried and analyzed by digital autoradiograph (digital autoradiograph, EG&G Berthold, Wildbad, Germany).
An aglycone library of the two tissues was obtained by enzymatic hydrolysis of the glycosides followed by liquid-liquid extraction of the released alcohols and acids. […] The formed glycosides were separated by thin layer chromatography (TLC) and visualized by radiodetection whereas identification could be achieved by LC-MS and NMR analysis and, after hydrolysis, by GC-MS and LC-MS (Figure 6).

[12] = substrates at fixed UDP-glucose 833 µM, UDP-glucose at constant geraniol 1.25 mM, Tris-HCl pH 7.5, 30 °C
[13] = relative to conversion of geraniol (100 %), extractable radioactivity
[14] = citronellol enantiomers, Figure 12, highest level of extractable radioactivity = 100 %

efficiency of transformation of R- and S-citronellol (in words) [1]: same efficiency
Compound: CC(C)=CCC[C@@H](C)CCO [R-citronellol, (R)-(+)-13-citronellol]

Compound: CC(C)=CCO [3-methyl-2-butenol]
conversion of putative substrate (in words) [2]: catalytic activity | conversion of putative substrate (in words) [1]: transformed

Compound: Oc1ccc(-c2[o+]c3cc(O)cc(O)c3cc2O)cc1 [pelargonodin]
relative specific activity [2]: < 1%

Compound: O=c1c(O)c(-c2ccc(O)c(O)c2)oc2cc(O)cc(O)c12 [quercetin]
relative specific activity [2]: < 1%

Compound: CCC/C=C/CO [trans 2-hexenol]
conversion of putative substrate (in words) [2]: catalytic activity | conversion of putative substrate (in words) [3]: able to use | conversion of putative substrate (in words) [4]: able to use | conversion of putative substrate (in words) [1]: transformed

Compound: C=CCc1ccc(O)c(OC)c1 [eugenol]
conversion of putative substrate (in words) [2]: catalytic activity

Compound: CC(C)=CCC/C(C)=C/CO [Geraniol, (E)-3,7-dimethyl-2,6-octadien-1-ol]
Km [5]: 9 ± 1.2 µM | kcat [5]: 0.02 s⁻¹ | Michaelis constant, fold greater than the KM values for nerol and S-citronellol [6]: about 2 fold | kcat ([6]; pH 7.5): 0.12 s⁻¹ | Km [6, 12]: 63 µM | Michaelis constant, fold greater than the KM values for nerol and S-citronellol [7]: about 2 fold | kcat ([7]; pH 7.5): 0.1 s⁻¹ and 0.10 s⁻¹ | Km [7, 12]: 81 µM | Michaelis constant, fold greater than the KM values for nerol and S-citronellol [8]: about 2 fold | kcat ([8]; pH 7.5): 0.17 s⁻¹ | Km [8, 12]: 43 µM | Km [9]: 355 ± 14 µM | kcat [9]: 0.015 s⁻¹ | relative specific activity [2]: 100% | conversion of putative substrate (in words) [2]: preferred | relative specific activity [3, 13]: 100% | conversion of putative substrate (in words) [3]: glucosylated primarily | relative specific activity [10, 13]: 100% | conversion of putative substrate (in words) [10]: glucosylated primarily | relative specific activity [4, 13]: 100% | conversion of putative substrate (in words) [4]: glucosylated primarily | relative specific activity [1]: > 80% | aglycone liberated by enzymatic hydrolysis of the glucosides formed from the grape skin aglycone library (in words) [11]: substantial amount

Compound: OCc1ccccc1 [benzyl alcohol]
conversion of putative substrate (in words) [2]: catalytic activity | relative specific activity [1]: > 80% and 100% | aglycone liberated by enzymatic hydrolysis of the glucosides formed from the grape skin aglycone library (in words) [11]: remarkable quantities

Compound: Oc1cc(O)c2cc(O)c(-c3ccc(O)c(O)c3)[o+]c2c1 [cyanidin]
relative specific activity [2]: < 1%

Compound: O=c1c(O)c(-c2ccc(O)cc2)oc2cc(O)cc(O)c12 [kaempferol]
relative specific activity [2]: < 1%

Compound: CC(C)=CCC[C@H](C)CCO [S-citronellol]
kcat ([6]; pH 7.5): 0.02 s⁻¹ | Km [6, 12]: 29 ± 3 µM | Km [7, 12]: 55 ± 1.3 µM | kcat [7, 12]: 0.03 s⁻¹ | Km [8, 12]: 20 ± 1.6 µM | kcat [8, 12]: 0.03 s⁻¹ | relative specific activity [3, 14]: 100% | relative specific activity [10, 14]: 100% | efficiency of transformation of R- and S-citronellol (in words) [1]: same efficiency

Compound: CCCCCCCCO [octanol]
relative specific activity [2]: > 80% | conversion of putative substrate (in words) [3]: glucosylated primarily | conversion of putative substrate (in words) [10]: glucosylated primarily | conversion of putative substrate (in words) [4]: glucosylated primarily

Compound: N#CC(O)c1ccccc1 (centres unmarked) [mandelonitrile]
conversion of putative substrate (in words) [2]: catalytic activity

Compound: CC(C)=CCC/C(C)=C\CO [Nerol, (Z)-3,7-dimethyl-2,6-octadien-1-ol]
Km [5]: 10 ± 0.7 µM | kcat [5]: 0.02 s⁻¹ | kcat ([6]; pH 7.5): 0.04 s⁻¹ | Km [6, 12]: 48 ± 1.7 µM | Km [7, 12]: 40 ± 3.7 µM | kcat [7, 12]: 0.03 s⁻¹ | kcat ([8]; pH 7.5): 0.06 s⁻¹ | Km [8, 12]: 28 ± 0.9 µM | Km [9]: 118 ± 4.7 µM | kcat [9]: 0.009 s⁻¹ | relative specific activity [2]: > 80% | conversion of putative substrate (in words) [3]: glucosylated primarily | conversion of putative substrate (in words) [10]: glucosylated primarily | conversion of putative substrate (in words) [4]: glucosylated primarily | conversion of putative substrate (in words) [1]: transformed | aglycone liberated by enzymatic hydrolysis of the glucosides formed from the grape skin aglycone library (in words) [11]: remarkable quantities

Compound: C=C(C)CCO [3-methyl-3-butenol]
conversion of putative substrate (in words) [2]: catalytic activity

Compound: CC/C=C\CCO [cis 3-hexenol]
conversion of putative substrate (in words) [2]: catalytic activity | conversion of putative substrate (in words) [1]: transformed

Compound: C=CC(C)(O)CCC=C(C)CO (centres unmarked) [8-hydroxylinalool]
Km [5]: 48 ± 2 µM | kcat [5]: 0.002 s⁻¹ | Km [6, 12]: 32 ± 1.4 µM | kcat [6, 12]: 0.003 s⁻¹ | Km [7, 12]: 33 ± 1.8 µM | kcat [7, 12]: 0.003 s⁻¹ | kcat ([8]; pH 7.5): 0.004 s⁻¹ | Km [8, 12]: 17 ± 0.2 µM | conversion of putative substrate (in words) [2]: catalytic activity | conversion of putative substrate (in words) [3]: able to use | conversion of putative substrate (in words) [4]: able to use

Compound: CC(C)=CCCC(C)=CCCC(C)=CCO [farnesol]
conversion of putative substrate (in words) [2]: catalytic activity | conversion of putative substrate (in words) [3]: low activity

Compound: CCCCCCO [hexanol]
relative specific activity [2]: > 80% | conversion of putative substrate (in words) [3]: glucosylated primarily | conversion of putative substrate (in words) [10]: glucosylated primarily | conversion of putative substrate (in words) [4]: glucosylated primarily | relative specific activity [1]: > 80%
